Results from patent US20070298144A1, “Method for Protecting Bioactive Food Ingredients Using Decoy Ingredients” (COMPAGNIE GERVAIS DANONE, priority 2004, published 2007).
Several values for one entry are separate records, joined by “and”; a condition that tells them apart may be missing. Identical values can stand only once. Entries after “also recorded” stand apart in the source; their conditions may differ. Like-named read-outs stand apart in the source and are kept apart here. Where no end group is shown, it is not given here.

Experiments:
[1] = tested on: Hansen YC-380 lactic ferment; assay: Fermentation of dairy mix containing DMV C12 hydrolysate (FIG. 3); parameters: species or system lactic bacteria; settings: 1.5 g/l of DMV C12 hydrolysate, fermentation up to pH 4.7
From the text: FIG. 3: Compared peptide profiles (LC-MS/MS chromatograms) of a dairy “mix” containing 1.5 g/l of DMV C12® hydrolysate, before (1) and after (2) fermentation up to pH 4.7 by the Hansen YC-380 lactic ferment. Virtually all of the hydrolysate peptides, including the bioactive C12 peptide (αS1 [23-34] fragment), disappeared following metabolism by the ferment strains.
In addition, in order to verify that this phenomenon was not specific to Lactium®, several combinations of ferments and other ingredients containing bioactive peptides were studied by implementing the same test (reconstituted milk and an ingredient to be tested in an amount of 1.5 g/l, fermented under standard conditions, fermentation stopped at pH 4.7, two repetitions).

[2] = In vivo animal; Migliore-Samour 1988; cited from earlier work
platelet aggregation = settings: In vitro; Jollès 1986; Raha 1988; cited from earlier work
[3] = tested on: experimental arterial thrombosis; settings: Rat and guinea pig with experimental arterial thrombosis; after IV injection; Drouet 1990; cited from earlier work
[4] = tested on: mouse peritoneal macrophages; settings: In vitro; Parker 1996; cited from earlier work
arterial pressure [5] = settings: Hypertensive rats; after ingestion; Nakamura 1995; cited from earlier work
arterial pressure [6] = settings: Normal rats; Nakamura 1995; cited from earlier work
arterial pressure [7] = settings: Hypertensive humans (36 subjects); 8 weeks of ingestion of 95 ml/d; Hata 1996; cited from earlier work
Staphylococcus aureus = settings: Mouse, sheep; IM injection; Lahov 1996; cited from earlier work
[8] = tested on: ferment consisting of a mixture of the strains I-2783, I-2774, I-2835 and I-1968, or YC-380; assay: Fermentation of dairy mix supplemented with Lactium; residual peptides by HPLC-MS/MS; parameters: species or system lactic bacteria; settings: 1.5 g/l Lactium added before fermentation; four-strain ferment or YC-380; to pH 4.70
Description: The medium was prepared by hydration of powdered skim milk to 120 g/l, supplemented with 1.5 g/l of Lactium® (corresponding to approximately 30 mg/l of the bioactive αS1 [91-100] peptide), then pasteurized at 95° C. for 8 minutes.
The lactic ferment was added in a proportion of 0.02% and fermentation was carried out at the optimal temperature for the selected ferment (37-42° C.) until a pH of 4.70 was reached.
After centrifugation, the supernatant constituted the representative sample of the peptide content of the fermented medium. • Said sample was injected into an Agilent 1100 HPLC system (Agilent Technologies France, 1 rue Galvani, 91745 Massy Cedex, France), equipped with a Waters Symetry® column suitable for peptide analysis (5 μm, 2.1×150 mm, WAT056975, Waters France, 5, rue Jacques Monod, 78280 Guyancourt) at a temperature of 40° C. and a flow rate of 0.25 ml/min. […] For example, the αS1 [91-100] peptide was isolated from its mass (doubly charged ion of mass 634.5 Da) and quantified from the intensity of its characteristic daughter ions after fragmentation (ions for m/z=991.5 Da, 771.5 Da and 658.3 Da). […]

Lactobacillus I-1519 = assay: Fermentation of Lactium milk by pure strain; settings: dairy mix containing 1.5 g/l of Lactium; pure strain I-1519; stopped at pH 4.7
Description: (§1) After centrifugation, the supernatant constituted the representative sample of the peptide content of the fermented medium. • Said sample was injected into an Agilent 1100 HPLC system (Agilent Technologies France, 1 rue Galvani, 91745 Massy Cedex, France), equipped with a Waters Symetry® column suitable for peptide analysis (5 μm, 2.1×150 mm, WAT056975, Waters France, 5, rue Jacques Monod, 78280 Guyancourt) at a temperature of 40° C. and a flow rate of 0.25 ml/min. The peptides were eluted in a conventional way with an increasing gradient of solvent B (acetonitrile and 0.100% formic acid) in solvent A (water and 0.106% formic acid) for a period of 40 minutes to 2 hours as a function of the resolution desired. • Detection was carried out using a specific MS/MS detector, for example with an ionic trap device such as the Esquire 3000+(Bruker Daltonique, rue de l'Industrie, 67166 Wissembourg Cedex) set either for overall analysis of peptide content (MS-MS mode) or for the precise and specific quantification of a peptide from its characteristic fragments. For example, the αS1 [91-100] peptide was isolated from its mass (doubly charged ion of mass 634.5 Da) and quantified from the intensity of its characteristic daughter ions after fragmentation (ions for m/z=991.5 Da, 771.5 Da and 658.3 Da). In an even more precise manner, an internal standard comprised of the same doubly deuterated synthetic peptide (993.5 Da characteristic fragment) made it possible to take into account and to exclude potential interference related to the matrix.
(§2) In order to verify that this phenomenon was not specific to the two ferments used in paragraph 1.1) above, the principle industrial ferments, as well as various pure strains used in the composition of said ferments, were examined using the same test: milk reconstituted from powdered milk, to which Lactium® was added in an amount of 1.5 g/l, was fermented under standard conditions (optimal temperature for the ferment between 37° C. and 42° C., fermentation stopped at pH 4.7, two repetitions). Analysis of the level of bioactive αS1 [91-100] peptide was then carried out on the sample before and after fermentation.
(§3) In table 3 above, which reflects the consumption of the bioactive αS1 [91-100] peptide by various ferments and industrial strains during the fermentation of a dairy mix containing 1.5 g/l of Lactium®, the pure strains were identified by their CNCM (Pasteur Institute, Paris, France) number and deposit date.

Lactobacillus I-1632 = assay: Fermentation of Lactium milk by pure strain; settings: dairy mix containing 1.5 g/l of Lactium; pure strain I-1632; stopped at pH 4.7
Description: as §1, §2, §3

Lactobacillus I-1968 = assay: Fermentation of Lactium milk by pure strain; settings: dairy mix containing 1.5 g/l of Lactium; pure strain I-1968; stopped at pH 4.7
Description: as §1, §2, §3

Lactobacillus I-2809 = assay: Fermentation of Lactium milk by pure strain; settings: dairy mix containing 1.5 g/l of Lactium; pure strain I-2809; stopped at pH 4.7
Description: as §1, §2, §3

S. thermophilus I-1477 = assay: Fermentation of Lactium milk by pure strain; settings: dairy mix containing 1.5 g/l of Lactium; pure strain I-1477; stopped at pH 4.7
Description: as §1, §2, §3

S. thermophilus I-1630 = assay: Fermentation of Lactium milk by pure strain; settings: dairy mix containing 1.5 g/l of Lactium; pure strain I-1630; stopped at pH 4.7
Description: as §1, §2, §3

[9] = tested on: ferment containing strains I-2783, I-2774, I-2835 and I-1968; assay: Peptide added after fermentation, storage at 10° C (FIG. 4); parameters: species or system lactic bacteria
Description: FIG. 4: Curves illustrating the evolution of the residual content in bioactive αS1 [91-100] peptide in a final product comprised of 95% mass fermented by the ferment containing strains I-2783, I-2774, I-2835 and I-1968 and 5% flavored sugar syrup containing the αS1 [91-100] peptide, during storage at 10° C. The experiment was comprised of four independent tests: E1, E2, E3 and E4.
A logical alternative to the procedure studied above is to introduce the functional ingredient after fermentation (“delayed differentiation” procedure), for example with the syrup used to flavor the fermented mass.

[10] = Fermented product heat treated at 75° C for 1 minute, storage at 10° C (FIG. 5); settings: 75° C. for approximately 1 min; stored at 10° C. until UBD
Description: Since the consumption of the bioactive peptide is caused by the metabolic activity of the ferments, it may be considered useful to reduce this phenomenon by destroying all or part of the microorganisms, for example using a suitable heat treatment (thermization or pasteurization).
FIG. 5: Curves illustrating the evolution of the residual content in bioactive αS1 [91-100] peptide added after fermentation in a fermented product which was then heat treated at 75° C. for 1 minute and then stored at 10° C. until the use-by date (UBD).

## C12 peptide: bioactive C12 peptide (αS1 [23-34] fragment) of DMV C12® hydrolysate (FFVAPFPEVFGK; UniProt P02662 38-49, looked up, fragment)
[1]
  hydrolysate peptides after fermentation (LC-MS/MS peptide profile): disappeared

## Casein 63-68: Bovine β-casein, Casein 63-68 (PGPIPN; UniProt P02666 78-83, looked up, fragment)
[2]
  protection in vivo: No protection in vivo

## Casein 191-193: Bovine β-casein, Casein 191-193 (LLY; UniProt P02666 206-208, looked up, fragment)
[2]
  protection in vivo: No protection in vivo

## Human lactotransferrin tetrapeptide (39-42): Human lactotransferrin tetrapeptide (39-42) (RDSP; UniProt P02788 58-61, looked up, fragment)
Platelet aggregation
  platelet aggregation: Inhibition of platelet
[3]
  antithrombotic activity: after IV injection, antithrombotic

## Human β-casein 54-59: Human β-casein 54-59 (VEPIPY; UniProt P05814 69-74, looked up, fragment)
[4]
  sheep red blood cell phagocytosis by mouse peritoneal macrophages: Stimulation of sheep red blood

## II-Pro-Pro
Arterial pressure [5]
  arterial pressure: ingestion, decrease in arterial
Arterial pressure [6]
  arterial pressure: Normal rats: no effect
Arterial pressure [7]
  arterial pressure: decrease in arterial pressure

## Peptide 106-116 of bovine κ-casein: Peptide 106-116 of bovine κ-casein (MAIPPKKNQDK; UniProt P02668 127-137, looked up, fragment)
Platelet aggregation
  platelet aggregation: Inhibition of platelet

## RPKHPIKHQGLPQEVLNENLLRF [αS1B-casein fragment (1-23 N terminal)]
Staphylococcus aureus
  efficacy against Staphylococcus aureus: Mouse, sheep: effective via IM injection

## Val-Pro-Pro
Arterial pressure [5]
  arterial pressure: ingestion, decrease in arterial
Arterial pressure [6]
  arterial pressure: Normal rats: no effect
Arterial pressure [7]
  arterial pressure: decrease in arterial pressure

## α-lactalbumin 51-53: α-lactalbumin 51-53 (GLF; UniProt P00711 70-72, looked up, fragment)
[4]
  sheep red blood cell phagocytosis by mouse peritoneal macrophages: Stimulation of sheep red blood

## αS1 [91-100] peptide: peptide with anti-convulsive properties contained in milk protein hydrolysates, marketed by Ingredia under the name Lactium® (YLGYLEQLLR; UniProt P02662 106-115, looked up, fragment)
[8]
  bioactive αS1 [91-100] peptide consumed after fermentation: more than 95%
Lactobacillus I-1519
  % of αS1 [91-100] peptide remaining after fermentation: 0.1%
Lactobacillus I-1632
  % of αS1 [91-100] peptide remaining after fermentation: 0.2%
Lactobacillus I-1968
  % of αS1 [91-100] peptide remaining after fermentation: 1.6%
Lactobacillus I-2809
  % of αS1 [91-100] peptide remaining after fermentation: 0.4%
S. thermophilus I-1477
  % of αS1 [91-100] peptide remaining after fermentation: 0.3%
S. thermophilus I-1630
  % of αS1 [91-100] peptide remaining after fermentation: 0.3%
[9]; added cold (4° C.) after fermentation, 1.5 g of Lactium per kg of final product, storage at 10° C.
  initial quantity of active peptide left on the use-by date (UBD): 30-40%
[9]; after 10 days, fresh products whose UBD is 28 days
  αS1 [91-100] peptide disappeared during storage of the final product: 35-50% and 35-55%
[10]
  stability of αS1 [91-100] peptide in heat-treated fermented product: possible to assure the stability; also recorded: possible to preserve
